# Biological target: T1, LXRβ (Homo sapiens, UniProt P55055)
# T1 construct: Co-transfection expression plasmids, comprising full-length LXRα (pCMX-h LXRα[…] or LXRβ (pCMX-hLXRβ)); expressed in transfected cells; host or cells: CV-1 African Green Monkey Kidney Cells
# T1 sequence (P55055 1-460): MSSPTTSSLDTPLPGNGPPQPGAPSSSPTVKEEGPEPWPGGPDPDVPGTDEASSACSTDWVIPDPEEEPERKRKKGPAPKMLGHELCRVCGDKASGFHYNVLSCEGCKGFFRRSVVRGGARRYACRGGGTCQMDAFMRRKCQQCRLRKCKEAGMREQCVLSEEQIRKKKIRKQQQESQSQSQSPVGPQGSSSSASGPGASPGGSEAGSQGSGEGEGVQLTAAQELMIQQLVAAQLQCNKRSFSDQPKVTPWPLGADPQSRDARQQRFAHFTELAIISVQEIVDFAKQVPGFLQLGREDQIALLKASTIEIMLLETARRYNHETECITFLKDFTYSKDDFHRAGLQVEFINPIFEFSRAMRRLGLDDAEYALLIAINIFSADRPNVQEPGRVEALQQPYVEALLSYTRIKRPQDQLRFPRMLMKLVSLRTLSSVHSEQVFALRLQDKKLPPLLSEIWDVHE
# T1 sequence (P19793 1-462 partner): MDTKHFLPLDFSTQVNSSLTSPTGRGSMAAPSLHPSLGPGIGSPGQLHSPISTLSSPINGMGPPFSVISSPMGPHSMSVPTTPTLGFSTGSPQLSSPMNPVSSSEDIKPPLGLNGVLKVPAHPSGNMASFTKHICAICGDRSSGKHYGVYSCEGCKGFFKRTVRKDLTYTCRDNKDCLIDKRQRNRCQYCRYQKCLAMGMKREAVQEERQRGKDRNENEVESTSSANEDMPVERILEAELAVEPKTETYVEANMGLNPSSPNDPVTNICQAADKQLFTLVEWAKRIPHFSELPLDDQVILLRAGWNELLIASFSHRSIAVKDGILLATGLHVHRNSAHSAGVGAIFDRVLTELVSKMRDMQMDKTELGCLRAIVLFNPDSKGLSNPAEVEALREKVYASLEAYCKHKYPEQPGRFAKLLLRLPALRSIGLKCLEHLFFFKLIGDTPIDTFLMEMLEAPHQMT
# Assay: Co-transfection assay (LXRE luciferase reporter), LXRβ
# Type: cell-based
# Details: for EC50: CV-1 cells transfected with pCMX-hLXRβ and LXREx1-Tk-Luciferase, 20 hours incubation; for Emax: LXRβ co-transfection, relative to high control 1-(2,4-difluorobenzyl)-2-oxo-6-(4-phenoxyphenyl)-4-(trifluoromethyl)-1,2-dihydropyridine-3-carbonitrile, read-out: % Efficacy
# Outline: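 Luciferase output from an LXRE-Tk reporter measured after 20 h, 37 °C compound exposure of transiently transfected CV-1 cells expressing human LXRβ with endogenous RXR. EC50 fitted from 11-point half-log dose responses (mean of ≥2 runs); % efficacy versus maximal response of the reference agonist.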
SMILES,EC50 [µM],Emax [%]
"Cc1nc(C(F)(F)F)cn1-c1c(F)cc(-c2cccc(S(=O)(=O)NCCO)c2)cc1-n1nncc1-c1ccc(OC(F)(F)F)cc1 [Example 208, 3′-fluoro-N-(2-hydroxyethyl)-4′-[2-methyl-4-(trifluoromethyl)-1H-imidazol-1-yl]-5′-(5-{4-[(trifluoromethyl)oxy]phenyl}-1H-1,2,3-triazol-1-yl)biphenyl-3-sulfonamide]",1.27,77
"Cc1nc(C(F)(F)F)cn1-c1ccc(-c2cccc(S(C)(=O)=O)c2)cc1-n1nncc1Cc1ccccc1Cl [Example 219, 5-(2-chlorobenzyl)-1-(4-(2-methyl-4-(trifluoromethyl)-1H-imidazol-1-yl)-3′-(methylsulfonyl)-[1,1′-biphenyl]-3-yl)-1H-1,2,3-triazole]",1.52,44
"Cc1nc(C(F)F)cn1-c1ccc(-c2cc(F)c(CO)c(S(C)(=O)=O)c2)cc1-n1nncc1-c1ccc(OC(F)(F)F)cc1 [Example 220, (4′-(4-(difluoromethyl)-2-methyl-1H-imidazol-1-yl)-3-fluoro-5-(methylsulfonyl)-3′-(5-(4-(trifluoromethoxy)phenyl)-1H-1,2,3-triazol-1-yl)-[1,1′-biphenyl]-4-yl)methanol]",0.782,102
"Cc1nc(C(F)(F)F)cn1-c1ccc(-c2cccc(S(C)(=O)=O)c2)cc1-n1nncc1C(C)(C)c1ccc(Cl)cc1 [Example 222, 5-(2-(4-chlorophenyl)propan-2-yl)-1-(4-(2-methyl-4-(trifluoromethyl)-1H-imidazol-1-yl)-3′-(methylsulfonyl)-[1,1′-biphenyl]-3-yl)-1H-1,2,3-triazole]",1.85,43
"Cc1nc(C(F)(F)F)cn1-c1ccc(-c2cc(F)c(CO)c(S(C)(=O)=O)c2)cc1-n1nncc1C(C)(C)c1ccc(Cl)cc1 [Example 223, (3′-(5-(2-(4-chlorophenyl)propan-2-yl)-1H-1,2,3-triazol-1-yl)-3-fluoro-4′-(2-methyl-4-(trifluoromethyl)-1H-imidazol-1-yl)-5-(methylsulfonyl)-[1,1′-biphenyl]-4-yl)methanol]",1.77,63
"CS(=O)(=O)c1cccc(-c2ccc(-n3cc(C(F)(F)F)nc3C(F)F)c(-n3nncc3-c3ccc(Cl)cc3)c2)c1 [Example 225, 5-(4-chlorophenyl)-1-(4-(2-(difluoromethyl)-4-(trifluoromethyl)-1H-imidazol-1-yl)-3′-(methylsulfonyl)-[1,1′-biphenyl]-3-yl)-1H-1,2,3-triazole]",1.1,91
"CCc1nc(C(F)(F)F)cn1-c1ccc(-c2cccc(S(C)(=O)=O)c2)cc1-n1nncc1-c1ccc(OC(F)(F)F)cc1 [Example 227, 1-(4-(2-ethyl-4-(trifluoromethyl)-1H-imidazol-1-yl)-3′-(methylsulfonyl)-[1,1′-biphenyl]-3-yl)-5-(4-(trifluoromethoxy)phenyl)-1H-1,2,3-triazole]",0.865,118
"Cc1nc(C2CC2)cn1-c1ccc(-c2cccc(S(C)(=O)=O)c2)cc1-n1nncc1-c1ccc(Cl)cc1 [Example 228, 5-(4-chlorophenyl)-1-(4-(4-cyclopropyl-2-methyl-1H-imidazol-1-yl)-3′-(methylsulfonyl)-[1,1′-biphenyl]-3-yl)-1H-1,2,3-triazole]",2.56,67

# Stronger by EC50, values ahead:
EC50 [µM],Emax [%],SMILES
0.214,80,"CNS(=O)(=O)c1cccc(-c2cc(F)c(-n3cc(C(F)(F)F)nc3C)c(-n3nncc3-c3ccc(Cl)cc3)c2)c1 [Example 209, 3′-[5-(4-chlorophenyl)-1H-1,2,3-triazol-1-yl]-5′-fluoro-N-methyl-4′-[2-methyl-4-(trifluoromethyl)-1H-imidazol-1-yl]biphenyl-3-sulfonamide]"
0.394,78,"Cc1nc(C(F)(F)F)cn1-c1c(F)cc(-c2ccc(CO)c(S(C)(=O)=O)c2)cc1-n1nncc1-c1ccc(Cl)cc1 [Example 210, {3′-[5-(4-chlorophenyl)-1H-1,2,3-triazol-1-yl]-5′-fluoro-3-(methylsulfonyl)-4′-[2-methyl-4-(trifluoromethyl)-1H-imidazol-1-yl]biphenyl-4-yl}methanol]"
0.127,99,"Cc1nc(C(F)(F)F)cn1-c1ccc(-c2cc(F)c(CO)c(S(C)(=O)=O)c2)cc1-n1nncc1-c1ccc(OC(F)(F)F)cc1 [Example 211, (3-fluoro-4′-(2-methyl-4-(trifluoromethyl)-1H-imidazol-1-yl)-5-(methylsulfonyl)-3′-(5-(4-(trifluoromethoxy)phenyl)-1H-1,2,3-triazol-1-yl)-[1,1′-biphenyl]-4-yl)methanol]"
0.43,101,"Cc1nc(C(F)(F)F)cn1-c1ccc(-c2cc(Cl)c(CO)c(S(C)(=O)=O)c2)cc1-n1nncc1-c1ccc(OC(F)(F)F)cc1 [Example 212, (3-chloro-4′-(2-methyl-4-(trifluoromethyl)-1H-imidazol-1-yl)-5-(methylsulfonyl)-3′-(5-(4-(trifluoromethoxy)phenyl)-1H-1,2,3-triazol-1-yl)-[1,1′-biphenyl]-4-yl)methanol]"
0.094,89,"CNS(=O)(=O)c1cccc(-c2ccc(-n3cc(C(F)(F)F)nc3C)c(-n3nncc3-c3ccc(OC(F)(F)F)cc3)c2)c1 [Example 213, N-methyl-4′-(2-methyl-4-(trifluoromethyl)-1H-imidazol-1-yl)-3′-(5-(4-(trifluoromethoxy)phenyl)-1H-1,2,3-triazol-1-yl)-[1,1′-biphenyl]-3-sulfonamide]"
0.21,87,"Cc1nc(C(F)(F)F)cn1-c1ccc(-c2cccc(S(=O)(=O)N(C)C)c2)cc1-n1nncc1-c1ccc(OC(F)(F)F)cc1 [Example 214, N,N-dimethyl-4′-(2-methyl-4-(trifluoromethyl)-1H-imidazol-1-yl)-3′-(5-(4-(trifluoromethoxy)phenyl)-1H-1,2,3-triazol-1-yl)-[1,1′-biphenyl]-3-sulfonamide]"
0.334,86,"CCS(=O)(=O)c1cccc(-c2ccc(-n3cc(C(F)(F)F)nc3C)c(-n3nncc3-c3ccc(OC(F)(F)F)cc3)c2)c1 [Example 215, 1-(3′-(ethylsulfonyl)-4-(2-methyl-4-(trifluoromethyl)-1H-imidazol-1-yl)-[1,1-biphenyl]-3-yl)-5-(4-(trifluoromethoxy)phenyl)-1H-1,2,3-triazole]"
0.286,91,"Cc1nc(C(F)(F)F)cn1-c1ccc(-c2cc(F)c(CO)c(S(C)(=O)=O)c2)cc1-n1nncc1-c1ccc2occc2c1 [Example 216, (3′-(5-(benzofuran-5-yl)-1H-1,2,3-triazol-1-yl)-3-fluoro-4′-(2-methyl-4-(trifluoromethyl)-1H-imidazol-1-yl)-5-(methylsulfonyl)-[1,1′-biphenyl]-4-yl)methanol]"
0.111,69,"Cc1nc(C(F)(F)C(C)C)cn1-c1ccc(-c2cc(F)c(CO)c(S(C)(=O)=O)c2)cc1-n1nncc1-c1ccc(OC(F)(F)F)cc1 [Example 221, (4′-(4-(1,1-difluoro-2-methylpropyl)-2-methyl-1H-imidazol-1-yl)-3-fluoro-5-(methylsulfonyl)-3′-(5-(4-(trifluoromethoxy)phenyl)-1H-1,2,3-triazol-1-yl)-[1,1′-biphenyl]-4-yl)methanol]"
0.411,57,"Cc1nc(C(F)(F)F)cn1-c1ccc(-c2cccc(S(C)(=O)=O)c2)cc1-n1nncc1C(C)(F)c1ccc(Cl)cc1 (centres unmarked) [Example 224, 5-(1-(4-chlorophenyl)-1-fluoroethyl)-1-(4-(2-methyl-4-(trifluoromethyl)-1H-imidazol-1-yl)-3′-(methylsulfonyl)-[1,1′-biphenyl]-3-yl)-1H-1,2,3-triazole]"
0.677,92,"CS(=O)(=O)c1cccc(-c2ccc(-n3cc(C(F)(F)F)nc3C(F)F)c(-n3nncc3-c3ccc(OC(F)(F)F)cc3)c2)c1 [Example 226, 1-(4-(2-(difluoromethyl)-4-(trifluoromethyl)-1H-imidazol-1-yl)-3′-(methylsulfonyl)-[1,1′-biphenyl]-3-yl)-5-(4-(trifluoromethoxy)phenyl)-1H-1,2,3-triazole]"

# — patent publication US9834542B2, “LXR modulators” (BRISTOL-MYERS SQUIBB COMPANY, priority 2013, dated 2017)
